The subject of one data set is HIV-1 Bal virus. The data set is described as follows: Inhibitory activity on PBMCs infected with HIV-1 Bal virus (reverse transcriptase content in supernatant). Type of data set: cell-based. The following applies: 5 days exposure, read-out: IC50 of inhibition of HIV-1 Bal replication in PBMCs. How it is done:
The inhibitory activity of the compounds according to the invention on PBMCs (peripheral blood mononuclear cells) infected with the HIV-1 Bal virus was also measured, according to a technique adapted from that described by V. Dolle et al., J. Med. Chem., 2000, 43, 3949, 3962. According to this technique, the PMBCs are infected with HIV-1 Bal and the test compounds are then added to the culture medium for 5 days. At the end of this exposure, the content of reverse transcriptase, which is correlated with the level of viral replication in the cells, is measured in the supernatant.
Under these conditions, AZT, a reference molecule which inhibits viral replication, has an IC50 value of less than 0.1 μM.

For another data set, the target named is T1, human CCR2b receptor (Homo sapiens, UniProt P41597).
T1 sequence (P41597 1-360 isoform P41597-2): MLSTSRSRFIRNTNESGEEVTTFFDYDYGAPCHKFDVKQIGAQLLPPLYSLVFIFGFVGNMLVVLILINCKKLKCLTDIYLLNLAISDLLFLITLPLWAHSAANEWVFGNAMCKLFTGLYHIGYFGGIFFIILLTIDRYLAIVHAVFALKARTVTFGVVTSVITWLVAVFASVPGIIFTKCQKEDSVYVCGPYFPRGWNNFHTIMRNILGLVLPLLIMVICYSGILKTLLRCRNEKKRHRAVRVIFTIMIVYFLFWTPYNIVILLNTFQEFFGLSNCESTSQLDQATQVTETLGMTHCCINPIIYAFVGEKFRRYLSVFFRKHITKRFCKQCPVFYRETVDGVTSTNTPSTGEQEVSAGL
The data set is described as follows: Inhibitory activity on cells expressing the human CCR2b receptor. Type of data set: cell-based. How it is done:
The inhibitory activity of the compounds according to the invention on cells expressing the human CCR2b receptor was measured.

A further data set has as its system human THP-1 monocytes. The data set is described as follows: Inhibition of chemotaxis on human THP-1 monocytes (adapted from Albini et al.). The class given is cell-based. The following applies: hMCP-1. How it is done:
The inhibition of chemotaxis was also measured on human THP-1 monocytes (sold by DSMZ-Germany) using a technique adapted from that described by A. Albini et al., Cancer Res., 1987, 47, 3239-3245. Under these conditions, hMCP-1 has an IC50 value of 6 nM.
The inhibition of chemotaxis by the compounds according to the invention is a sign of their antagonist activity on the chemokine receptors and in particular CCR2b.

Setting [1] is: read-out: IC50 of inhibitory activity on cells expressing the human CCR2b receptor.

Read-outs that look alike come from different tables or passages of the source.

One may read the melting point as the temperature, or range, at which the solid turns liquid.

In the case of `CCCCc1ccc(OC)c(-c2csc(NC(=O)c3ccc(C(=O)N4CCC(NC5CCOCC5)CC4)cc3)n2)c1.Cl.Cl` [68], the melting point lay in the range of 181 to 189 °C.
With `Cc1cn([C@H]2C[C@H](N=[N+]=[N-])[C@@H](CO)O2)c(=O)[nH]c1=O` [AZT], in the data set on HIV-1 Bal virus, the IC50 was under 100 nM.
On to `CCOc1ccc(OCC)c(-c2csc(NC(=O)c3ccc(OCCN(CC)CC)cc3)n2)c1` [compound 12], for which the IC50 on human CCR2b receptor (setting [1]) was determined as 81 nM.
`CCCCc1ccc(OC)c(-c2csc(NC(=O)c3ccc(CCCNC4CCOCC4)cc3)n2)c1` [compound 182, N-[4-(5-Butyl-2-methoxyphenyl)-1,3-thiazol-2-yl]-4-[3-(tetrahydro-2H-pyran-4-ylamino)propyl]benzamide]: the melting point worked out at 150 °C.
As for `CCCc1ccc(OC)c(-c2csc(NC(=O)c3ccc(C(=O)N4CCC(N5CC[C@@H](N(C)C)C5)CC4)cc3)n2)c1` [compound 203], the IC50 at human CCR2b receptor (setting [1]) came out at 93 nM.
On to `CCOc1ccc(C2CCCCC2)cc1-c1csc(NC(=O)c2ccc(C(=O)N3CCC(=O)CC3)cc2)n1` [compound 244], for which the melting point stood at 236 °C. At human CCR2b receptor (setting [1]), the IC50 was 88 nM.
For “hMCP-1: "hMCP-1 (human monocyte chemotactic protein), which belongs to the group of CC chemokines and whose actions are mediated by the CCR2b receptor"”, the IC50 in the data set with human CCR2b receptor (natural agonist, read-out: concentration of natural agonist hMCP-1 that inhibits 50% (IC50) of the activity of the CCR2b receptor) came to 0.57 nM; in the data set with human THP-1 monocytes, 6 nM.

Source of the values: patent US7777041B2, “2-acylamino-4-phenylthiazole derivatives, preparation thereof and therapeutic application thereof” (sanofi-aventis, priority 2003, dated 2010).
